The subject of one test is HCV replicon genotype 1b. Description: HCV replicon assay, genotype 1b (cell ELISA for replicon-encoded NS3/4A). Format: cell-based, hepatitis C virus (HCV). Put shortly:
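Genotype 1b replicon cells (neomycin-selected, G418 removed for assay) incubated 96 h with compound dilution series. Replication measured by cell ELISA for replicon-encoded NS3/4A after lysis; IC50 from four-parameter fit relative to DMSO control.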

For another test, the system named is HCV replicon genotype 1a. Nature of the test: HCV replicon assay, genotype 1a (cell ELISA for replicon-encoded NS3/4A). The test is classed as cell-based, hepatitis C virus (HCV). In outline:
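Stable G418-selected neomycin-resistant HCV replicon cells were plated with serially diluted compound without G418 and incubated 96 h. After washing and lysis, replicon RNA was measured indirectly by cell ELISA for replicon-encoded NS3/4A; IC50 from four-parameter fit relative to DMSO control.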

Setting [1] is: Hepatitis C virus, 96 h, read-out: 1b IC50 (nM), genotype 1b replicon cells, 96 hours incubation, NS3/4A ELISA readout, % of DMSO control.
Where [2] appears, read: Hepatitis C virus, 96 h, read-out: 1a IC50 (nM), genotype 1a replicon cells, 96 hours incubation, NS3/4A ELISA readout, % of DMSO control.

Like-named read-outs stand apart in the source and are kept apart here.

For the compound `CNC(=O)c1c(-c2ccc(C(F)(F)F)nc2)oc2cc(N(C)S(C)(=O)=O)c(-c3ccc4ncn5c6cccc(F)c6cc5c4n3)cc12` [Example 1, 5-(11-fluoropyrido[3′,2′:4,5]pyrimido[1,6-a]indol-2-yl)-N-methyl-6-(N-methylmethylsulfonamido)-2-(6-(trifluoromethyl)pyridin-3-yl)benzofuran-3-carboxamide], the IC50 with HCV replicon genotype 1b (setting [1]) came to 4.01 nM; in the test on HCV replicon genotype 1a (setting [2]), 6.56 nM.
The matching figures for `CNC(=O)c1c(-c2ccc(OC(F)F)nc2)oc2cc(N(C)S(C)(=O)=O)c(-c3ccc4ncn5c6cccc(F)c6cc5c4n3)cc12` [Example 2]: 6.91 nM and 2.83 nM.
Take `CNC(=O)c1c(-c2ccc(F)cc2F)oc2cc(N(C)S(C)(=O)=O)c(-c3ccc4nc(CN5CCC(F)(F)C5)n5c6cccc(F)c6cc5c4n3)cc12` [Example 46]: the IC50 came out at 11.3 nM in the test on HCV replicon genotype 1b (setting [1]) and 7.76 nM with HCV replicon genotype 1a (setting [2]).
The matching figures for `CNC(=O)c1c(-c2ccc(F)cc2)oc2cc(N(C)S(C)(=O)=O)c(-c3ccc4c(n3)-c3cc5c(F)cccc5n3CN4CC(=O)O)cc12` [Example 70, 2-(11-fluoro-2-(2-(4-fluorophenyl)-3-(methylcarbamoyl)-6-(N-methylmethylsulfonamido)benzofuran-5-yl)pyrido[3′,2′:4,5]pyrimido[1,6-a]indol-5(6H)-yl)acetic acid]: 26.8 nM and 35.2 nM.
The matching figures for `CNC(=O)c1c(C(=O)N2CC(F)C2)oc2cc(N(C)S(C)(=O)=O)c(-c3ccc4ncn5c6cccc(F)c6cc5c4n3)cc12` [Example 50, 2-(3-fluoroazetidine-1-carbonyl)-5-(11-fluoropyrido[3′,2′:4,5]pyrimido[1,6-a]indol-2-yl)-N-methyl-6-(N-methylmethylsulfonamido)benzofuran-3-carboxamide]: 19.8 nM and 18.1 nM.
Regarding `CNC(=O)c1c(-c2ccc(F)cc2)oc2cc(N(C)S(C)(=O)=O)c(-c3ccc4ncn5c6cccc(F)c6cc5c4n3)cc12` [Example 10, 2-(4-fluorophenyl)-5-(11-fluoropyrido[3′,2′:4,5]pyrimido[1,6-a]indol-2-yl)-N-methyl-6-(N-methylmethylsulfonamido)benzofuran-3-carboxamide], the IC50 in the test with HCV replicon genotype 1b (setting [1]) is 3.24 nM; in the test on HCV replicon genotype 1a (setting [2]), 2.01 nM.
For `CNC(=O)c1c(-c2ccc(F)cc2)oc2nc(N(C)S(C)(=O)=O)c(-c3ccc4nc(CN5CC(F)C5)n5c6cccc(F)c6cc5c4n3)cc12` [Example 38, 5-(11-fluoro-6-((3-fluoroazetidin-1-yl)methyl)pyrido[3′,2′:4,5]pyrimido[1,6-a]indol-2-yl)-2-(4-fluorophenyl)-N-methyl-6-(N-methylmethylsulfonamido)furo[2,3-b]pyridine-3-carboxamide] the same measures were 14.7 nM and 6.38 nM.
The matching figures for `CNC(=O)c1c(-c2ccc(F)cc2)oc2cc(N(C)S(C)(=O)=O)c(-c3ccc4nc(CN5CC[C@@H](F)C5)n5c6cccc(F)c6cc5c4n3)cc12` [Example 85]: 2.34 nM and 1.76 nM.
The matching figures for `CNC(=O)c1c(-c2ccc(F)cc2)oc2cc(N(C)S(C)(=O)=O)c(-c3ccc4nc(C(=O)OC)n5c6cccc(F)c6cc5c4n3)cc12` [Example 62, methyl 11-fluoro-2-(2-(4-fluorophenyl)-3-(methylcarbamoyl)-6-(N-methylmethylsulfonamido)benzofuran-5-yl)pyrido[3′,2′:4,5]pyrimido[1,6-a]indole-6-carboxylate]: 12.2 nM and 8.67 nM.
With `CNC(=O)c1c(-c2ccc(F)cc2)oc2cc(N(C)S(C)(=O)=O)c(-c3ccc4nc(CN5CC[C@H](O)C5)n5c6cccc(F)c6cc5c4n3)cc12` [Example 83], the IC50 in the test on HCV replicon genotype 1b (setting [1]) was 1.31 nM; in the test on HCV replicon genotype 1a (setting [2]) it was 1.33 nM.
The matching figures for `CNC(=O)c1c(-c2ccc(F)cc2)oc2cc(N(C)S(C)(=O)=O)c(-c3ccc4nc(CN5CC(C)(C#N)C5)n5c6cccc(C#N)c6cc5c4n3)cc12` [Example 130]: 1.39 nM and 1.22 nM.
The matching figures for `CNC(=O)c1c(-c2ccc(F)cc2)oc2cc(N(C)S(C)(=O)=O)c(-c3ccc4nc(CN5CC[C@H](F)C5)n5c6cccc(F)c6cc5c4n3)cc12` [Example 86]: 2.66 nM and 1.99 nM.
With `CNC(=O)c1c(-c2ccc(F)cc2)oc2cc(N(C)S(C)(=O)=O)c(-c3ccc4c(c3)-c3cc5ccccc5n3CN4S(C)(=O)=O)cc12` [Example 42, 2-(4-fluorophenyl)-N-methyl-6-(N-methylmethylsulfonamido)-5-(5-(methylsulfonyl)-5,6-dihydroindolo[1,2-c]quinazolin-2-yl)benzofuran-3-carboxamide], the values for the IC50 in the test with HCV replicon genotype 1b (setting [1]) and in the test on HCV replicon genotype 1a (setting [2]) were 13.1 nM and 17.2 nM, respectively.
For `CNC(=O)c1c(C(=O)N2CCC2(C)C)oc2cc(N(C)S(C)(=O)=O)c(-c3ccc4ncn5c6cccc(F)c6cc5c4n3)cc12` [Example 52] the same measures were 120 nM and 260 nM.
Turning to `CNC(=O)c1c(-c2ccc(F)cc2)oc2cc(N(C)S(C)(=O)=O)c(-c3ccc4c(n3)-c3cc5c(F)cccc5n3C(CC(=O)O)N4)cc12` (stereo not shown) [Example 72, 2-(11-fluoro-2-(2-(4-fluorophenyl)-3-(methylcarbamoyl)-6-(N-methylmethylsulfonamido)benzofuran-5-yl)-5,6-dihydropyrido[3′,2′:4,5]pyrimido[1,6-a]indol-6-yl)acetic acid], the IC50 with HCV replicon genotype 1b (setting [1]) was 15.6 nM; with HCV replicon genotype 1a (setting [2]), 22.8 nM.
With `CNC(=O)c1c(-c2ccc(F)cc2)oc2cc(N(C)S(C)(=O)=O)c(-c3ccc4nc(CN5CC[C@@H](F)C5)n5c6cccc(C#N)c6cc5c4n3)cc12` [Example 135], the IC50 is 3.66 nM in the test with HCV replicon genotype 1b (read-out: 1b IC50, genotype 1b replicon cells, 96 hours incubation, NS3/4A ELISA readout, % of DMSO control) and 2.71 nM with HCV replicon genotype 1a (read-out: 1a IC50, genotype 1a replicon cells, 96 hours incubation, NS3/4A ELISA readout, % of DMSO control).
With `CNC(=O)c1c(-c2ccc(F)cc2)oc2cc(N(C)S(C)(=O)=O)c(-c3ccc4nc(CN5CC(F)(F)C5)n5c6cccc(F)c6cc5c4n3)cc12` [Example 80], the IC50 stood at 2.46 nM with HCV replicon genotype 1b (setting [1]) and 2.65 nM in the test on HCV replicon genotype 1a (setting [2]).
As for `CNC(=O)c1c(-c2ccc(F)cc2)oc2cc(N(C)S(C)(=O)=O)c(-c3ccc4nc(CN5CC(O)(C(F)(F)F)C5)n5c6cccc(F)c6cc5c4n3)cc12` [Example 94], the IC50 came to 6.98 nM in the test on HCV replicon genotype 1b (setting [1]) and 4.33 nM with HCV replicon genotype 1a (setting [2]).
The matching figures for `CNC(=O)c1c(-c2ccc(F)cc2)oc2cc(N(C)S(C)(=O)=O)c(-c3ccc4c(n3)-c3cc5c(F)cccc5n3C(CO)N4)cc12` (stereo not shown) [Example 64, 5-(11-fluoro-6-(hydroxymethyl)-5,6-dihydropyrido[3′,2′:4,5]pyrimido[1,6-a]indol-2-yl)-2-(4-fluorophenyl)-N-methyl-6-(N-methylmethylsulfonamido)benzofuran-3-carboxamide]: 11.8 nM and 11.8 nM.
For `CNC(=O)c1c(-c2ccc(F)cc2F)oc2cc(N(C)S(C)(=O)=O)c(-c3ccc4nc(CN5CC[C@@H](F)C5)n5c6cccc(F)c6cc5c4n3)cc12` [Example 44, (R)-2-(2,4-difluorophenyl)-5-(11-fluoro-6-((3-fluoropyrrolidin-1-yl)methyl)pyrido[3′,2′:4,5]pyrimido[1,6-a]indol-2-yl)-N-methyl-6-(N-methylmethylsulfonamido)benzofuran-3-carboxamide] the same measures were 3.45 nM and 3.22 nM.
With `CNC(=O)c1c(-c2ccc(F)cc2)oc2cc(N(C)S(C)(=O)=O)c(-c3ccc4nc(CCN5CC(F)C5)c5c([nH]c6cccc(F)c65)c4n3)cc12` [54′, 5-(7-fluoro-6-(2-(3-fluoroazetidin-1-yl)ethyl)-11H-indolo[3,2-c][1,5]naphthyridin-2-yl)-2-(4-fluorophenyl)-N-methyl-6-(N-methylmethylsulfonamido)benzofuran-3-carboxamide], the IC50 amounted to 4.24 nM in the test with HCV replicon genotype 1b (setting [1]) and 4.17 nM with HCV replicon genotype 1a (setting [2]).
The matching figures for `CNC(=O)c1c(-c2ccc(F)cc2)oc2cc(N(C)S(C)(=O)=O)c(-c3ccc4nc(CC(=O)OC)n5c6cccc(F)c6cc5c4n3)cc12` [Example 63, methyl 2-(11-fluoro-2-(2-(4-fluorophenyl)-3-(methylcarbamoyl)-6-(N-methylmethylsulfonamido)benzofuran-5-yl)pyrido[3′,2′:4,5]pyrimido[1,6-a]indol-6-yl)acetate]: 2.76 nM and 1.55 nM.
For `CNC(=O)c1c(-c2ccc(F)cc2)oc2cc(N(C)S(C)(=O)=O)c(-c3ccc4nc(CN(C)CC(=O)N(C)C)n5c6cccc(F)c6cc5c4n3)cc12` [Example 115] the same measures were 4.93 nM and 2.19 nM.
Regarding `CNC(=O)c1c(-c2ccc(F)cc2)oc2cc(N(C)S(C)(=O)=O)c(-c3ccc4nc(CN5CCC(F)(F)CC5)n5c6cccc(C#N)c6cc5c4n3)cc12` [Example 123], the IC50 in the test on HCV replicon genotype 1b (setting [1]) came out at 5.8 nM; in the test on HCV replicon genotype 1a (setting [2]) it was 6.91 nM.
The matching figures for `CNC(=O)c1c(-c2ccc(F)cc2)oc2cc(N(C)S(C)(=O)=O)c(-c3cc4c(cn3)nc(CN3CC(C)(F)C3)n3c5cccc(F)c5cc43)cc12` [Example 118]: 4.24 nM and 2.67 nM.
The matching figures for `CNC(=O)c1c(-c2ccc(F)cc2)oc2cc(N(C)S(C)(=O)=O)c(-c3cc4c(cn3)nc(CS(C)(=O)=O)n3c5cccc(F)c5cc43)cc12` [Example 24]: 1.9 nM and 2.73 nM.
